From US20230293518A1 (Edgewise Therapeutics, Inc., priority 2020, published 2023)

molecular target: skeletal myofibrils (myosin ATPase); test: Skeletal Myofibril ATPase Assay; format: biochemical; settings: Table 4A
Method: Example 12. Skeletal Myofibril ATPase Assay
Overview: Myosin ATPase activity is assessed by using a coupled reaction system, in which ADP generated by the myosin ATPase function is coupled to the disappearance of NADH through the pyruvate kinase/lactate dehydrogenase (PK-LDH) system. ATPase activity produces ADP, which is used as a substrate for PK to produce pyruvate and regenerate ATP. The pyruvate is then used as a substrate by LDH to oxidize NADH to NAD+. The rate of the reaction is monitored through the time-dependent disappearance of NADH using absorbance at 340 nm. Inhibition of ATPase activity by the assayed compounds is indicated by a reduced rate of NADH loss, relative to vehicle-treated controls, over the experimental time window. To assess the selectivity of the assayed compounds for skeletal myofibrils, the compounds are counter-screened in cardiac myofibrils.
Materials: The following stock solutions and reagents were used in the Skeletal Myofibril ATPase Assay:
Stock Solutions of pCa buffer. Combine PIPES, CaCl2, and EGTA solutions with 70 mL of water. Adjust pH to 7.0 and bring final volume to 100 mL.
Buffer A & Buffer B. Buffers were stored on ice until use.
Skeletal Myofibril ATPase Assay Procedure: BSA, ATP, NADH, PEP, and DTT solutions were thawed at room temperature, then transferred to ice. Pellet-frozen myofibrils were transferred with approximately twice the required volume into a sufficiently large tube and capped. Myofibrils were thawed by rolling in a water bath for approximately 15 min at room temperature and cooled on ice. Buffers A and B were prepared by adjusting volumes as necessary for required number of wells and stored on ice. 0.5 μL of the compounds to be assayed were added into wells. 25 μL of Buffer A was dispensed into the wells, followed by 25 μL of Buffer B. The wells were measured for absorbance at 340 nm, using a kinetic protocol in which the wells are read every 1.5-2 min for 45 min. The slope of the data was approximated by subtracting the minimum absorbance value from the maximum value for each well. This was accomplished either in the SoftMax Pro software or in a spreadsheet program such as Excel. Using GraphPad Prism 8.0, the data was normalized by assigning a value of 100% to the 1% DMSO vehicle wells. Typically, a normalized 0% value was simply assigned to a (Max−Min) value of 0. The normalized data was fit to a Four Parameter Logistic sigmoidal equation, constraining the bottom to be 0 or greater. Compounds of Table 1, 2, and 3 were tested and results of the assay appear in Tables 4a-4c. A=IC50 is less than or equal to 10 μM; B═IC50 is greater than 10 μM and less than 100 μM; C═IC50 is greater than 100 μM.

For `CCNC(=O)Cn1nc(-c2ccc(NC34CC(C3)C4)nc2)ccc1=O` [Compound I-36, 2-[3-[6-([bicyclo[1.1.1]pentan-1-yl]amino)pyridin-3-yl]-6-oxo-1,6-dihydropyridazin-1-yl]-N-ethylacetamide], which IC50 is on record?
Its IC50 is < 10 µM.

How did the IC50 turn out when `CCNC(=O)Cn1nc(-c2ccc(CC(F)(F)F)nc2)ccc1=O` [Compound I-37, N-ethyl-2-(6-oxo-3-(6-(2,2,2-trifluoroethyl)pyridin-3-yl)pyridazin-1(6H)-yl)acetamide] was run?
Its IC50 is 10 to 100 µM.

For `O=C(Cn1nc(-c2ccc(NC34CC(C3)C4)nc2)ccc1=O)N1CCC1` [Compound I-39, 2-(2-(azetidin-1-yl)-2-oxoethyl)-6-(6-(bicyclo[1.1.1]pentan-1-ylamino)pyridin-3-yl)pyridazin-3(2H)-one], which IC50 is on record?
Its IC50 is 10 to 100 µM.

With `CCNC(=O)Cn1nc(-c2ccc(N3CC(COC(F)(F)F)C3)nc2)ccc1=O` [Compound I-40, N-ethyl-2-(6-oxo-3-(6-(3-((trifluoromethoxy)methyl)azetidin-1-yl)pyridin-3-yl)pyridazin-1(6H)-yl)acetamide] as the compound, how does the IC50 read?
Its IC50 is 10 to 100 µM.

How did the IC50 turn out when `CCNC(=O)Cn1nc(-c2ccc(NC34CCC(CC3)CC4)nc2)ccc1=O` [Compound I-41, 2-(3-(6-(bicyclo[2.2.2]octan-1-ylamino)pyridin-3-yl)-6-oxopyridazin-1(6H)-yl)-N-ethylacetamide] was run?
The IC50 was 10 to 100 µM.

With `CCNC(=O)Cn1nc(-c2cnc(NC34CC(O)(C3)C4)nc2)ccc1=O` [Compound I-42, N-ethyl-2-(3-(2-((3-hydroxybicyclo[1.1.1]pentan-1-yl)amino)pyrimidin-5-yl)-6-oxopyridazin-1(6H)-yl)acetamide] as the compound, how does the IC50 read?
The IC50 was 10 to 100 µM.

How did the IC50 turn out when `CCNC(=O)Cn1nc(-c2ccc(N3CC4CC(C3)O4)nc2)ccc1=O` [Compound I-43, 2-(3-(6-(6-oxa-3-azabicyclo[3.1.1]heptan-3-yl)pyridin-3-yl)-6-oxopyridazin-1(6H)-yl)-N-ethylacetamide] was run?
The IC50 was 10 to 100 µM.

With `CCNC(=O)Cn1nc(-c2ccc(NC3COC3)nc2)ccc1=O` [Compound I-44, N-ethyl-2-(3-(6-(oxetan-3-ylamino)pyridin-3-yl)-6-oxopyridazin-1(6H)-yl)acetamide] as the compound, how does the IC50 read?
The IC50 was < 10 µM.

How did the IC50 turn out when `CCNC(=O)Cn1nc(-c2ccc(NC3CCOCC3)nc2)ccc1=O` [Compound I-45, N-ethyl-2-(6-oxo-3-(6-((tetrahydro-2H-pyran-4-yl)amino)pyridin-3-yl)pyridazin-1(6H)-yl)acetamide] was run?
The IC50 was > 100 µM.

`O=C(Cn1nc(-c2ccc(NC34CC(C3)C4)nc2)ccc1=O)NC12CC(C1)C2` [Compound I-46, N-(bicyclo[1.1.1]pentan-1-yl)-2-(3-(6-(bicyclo[1.1.1]pentan-1-ylamino)pyridin-3-yl)-6-oxopyridazin-1(6H)-yl)acetamide] was tested. Which IC50 did it give?
The IC50 was < 10 µM.

`CCNC(=O)Cn1nc(-c2ccc(NC)nc2)ccc1=O` [Compound I-47, N-ethyl-2-(3-(6-(methylamino)pyridin-3-yl)-6-oxopyridazin-1(6H)-yl)acetamide] was tested. Which IC50 did it give?
Its IC50 is < 10 µM.

How did the IC50 turn out when `CCNC(=O)Cn1nc(-c2ccc(N3CCCC3C(F)(F)F)nc2)ccc1=O` (centres unmarked) [Compound I-48, N-ethyl-2-(6-oxo-3-(6-(2-(trifluoromethyl)pyrrolidin-1-yl)pyridin-3-yl)pyridazin-1(6H)-yl)acetamide] was run?
Its IC50 is < 10 µM.

How did the IC50 turn out when `CCNC(=O)Cn1nc(-c2cnc(OCCOC(F)(F)F)nc2)ccc1=O` [Compound I-49, N-ethyl-2-(6-oxo-3-(2-(2-(trifluoromethoxy)ethoxy)pyrimidin-5-yl)pyridazin-1(6H)-yl)acetamide] was run?
Its IC50 is 10 to 100 µM.

Which IC50 does the source give for `O=C(Cn1nc(-c2cnc(NC34CC(C3)C4)nc2)ccc1=O)NC1CCC1` [Compound I-50, 2-(3-(2-(bicyclo[1.1.1]pentan-1-ylamino)pyrimidin-5-yl)-6-oxopyridazin-1(6H)-yl)-N-cyclobutylacetamide] here?
Its IC50 is < 10 µM.

For `O=C(Cn1nc(-c2cnc(OCC(F)(F)F)nc2)ccc1=O)NC12CC(C1)C2` [Compound I-51, N-(bicyclo[1.1.1]pentan-1-yl)-2-(6-oxo-3-(2-(2,2,2-trifluoroethoxy)pyrimidin-5-yl)pyridazin-1(6H)-yl)acetamide], which IC50 is on record?
Its IC50 is < 10 µM.

How did the IC50 turn out when `O=C(Cn1nc(-c2ccc(NC3CCC3)nc2)ccc1=O)NC1CCC1` [Compound I-52, N-cyclobutyl-2-(3-(6-(cyclobutylamino)pyridin-3-yl)-6-oxopyridazin-1(6H)-yl)acetamide] was run?
Its IC50 is < 10 µM.

For `CCNC(=O)Cn1nc(-c2ccc(NC(C)(C)C)nc2)ccc1=O` [Compound I-53, 2-(3-(6-(tert-butylamino)pyridin-3-yl)-6-oxopyridazin-1(6H)-yl)-N-ethylacetamide], which IC50 is on record?
Its IC50 is < 10 µM.

For `O=C(Cn1nc(-c2ccc(NC34CC(C3)C4)nc2)ccc1=O)NC1CCC1` [Compound I-54, 2-(3-(6-(bicyclo[1.1.1]pentan-1-ylamino)pyridin-3-yl)-6-oxopyridazin-1(6H)-yl)-N-cyclobutylacetamide], which IC50 is on record?
Its IC50 is < 10 µM.

Which IC50 does the source give for `CCNC(=O)Cn1nc(-c2ccc(N3CC(OC(F)F)C3)nc2)ccc1=O` [Compound I-55, 2-(3-(6-(3-(difluoromethoxy)azetidin-1-yl)pyridin-3-yl)-6-oxopyridazin-1(6H)-yl)-N-ethylacetamide] here?
The IC50 was 10 to 100 µM.

With `O=C(Cn1nc(-c2ccc(OCC(F)(F)F)nc2)ccc1=O)NC1CCC1` [Compound I-56, N-cyclobutyl-2-(6-oxo-3-(6-(2,2,2-trifluoroethoxy)pyridin-3-yl)pyridazin-1(6H)-yl)acetamide] as the compound, how does the IC50 read?
The IC50 was < 10 µM.

With `CCNC(=O)Cn1nc(-c2cnc(NC34CC(F)(C3)C4)nc2)ccc1=O` [Compound I-57, N-ethyl-2-(3-(2-((3-fluorobicyclo[1.1.1]pentan-1-yl)amino)pyrimidin-5-yl)-6-oxopyridazin-1(6H)-yl)acetamide] as the compound, how does the IC50 read?
The IC50 was < 10 µM.

With `CCNC(=O)Cn1nc(-c2ccc(NC34CC(CO)(C3)C4)nc2)ccc1=O` [Compound I-58, N-ethyl-2-(3-(6-((3-(hydroxymethyl)bicyclo[1.1.1]pentan-1-yl)amino)pyridin-3-yl)-6-oxopyridazin-1(6H)-yl)acetamide] as the compound, how does the IC50 read?
Its IC50 is 10 to 100 µM.

For `CCNC(=O)Cn1nc(-c2cnc(NC34CC(C3)C4)nc2)ccc1=O` [Compound I-59, 2-[3-(2-[bicyclo[1.1.1]pentan-1-ylamino]pyrimidin-5-yl)-6-oxopyridazin-1-yl]-N-ethylacetamide], which IC50 is on record?
Its IC50 is < 10 µM.

For `CCNC(=O)Cn1nc(-c2ccc(NC34CC(C)(C3)C4)nc2)ccc1=O` [Compound I-60, N-ethyl-2-(3-(6-((3-methylbicyclo [1.1.1]pentan-1-yl)amino)pyridin-3-yl)-6-oxopyridazin-1(6H)-yl)acetamide], which IC50 is on record?
Its IC50 is < 10 µM.

With `CCNC(=O)Cn1nc(-c2ccc(N(C)C3CCC3)nc2)ccc1=O` [Compound I-61, 2-(3-(6-(cyclobutyl(methyl)amino)pyridin-3-yl)-6-oxopyridazin-1(6H)-yl)-N-ethylacetamide] as the compound, how does the IC50 read?
The IC50 was < 10 µM.

For `CCNC(=O)Cn1nc(-c2ccc(NC3CCC3)nc2)ccc1=O` [Compound I-62, 2-(3-(6-(cyclobutylamino)pyridin-3-yl)-6-oxopyridazin-1(6H)-yl)-N-ethylacetamide], which IC50 is on record?
The IC50 was < 10 µM.

With `CCNC(=O)Cn1nc(-c2ccc(SC)nc2)ccc1=O` [Compound I-63, N-ethyl-2-(3-(6-(methylthio)pyridin-3-yl)-6-oxopyridazin-1(6H)-yl)acetamide] as the compound, how does the IC50 read?
Its IC50 is < 10 µM.

`CCNC(=O)Cn1nc(-c2ccc(N(C)C34CC(C3)C4)nc2)ccc1=O` [Compound I-64, 2-(3-(6-(bicyclo[1.1.1]pentan-1-yl(methyl)amino)pyridin-3-yl)-6-oxopyridazin-1(6H)-yl)-N-ethylacetamide] was tested. Which IC50 did it give?
Its IC50 is < 10 µM.

With `CCNC(=O)Cn1nc(-c2ccc(OC(F)F)[n+]([O-])c2)ccc1=O` [Compound I-65, 2-(difluoromethoxy)-5-(1-(2-(ethylamino)-2-oxoethyl)-6-oxo-1,6-dihydropyridazin-3-yl)pyridine 1-oxide] as the compound, how does the IC50 read?
Its IC50 is > 100 µM.

How did the IC50 turn out when `CC[C@@H](C)NC(=O)Cn1nc(-c2ccc(OC(F)F)nc2)ccc1=O` [Compound I-66, (R)-N-(sec-butyl)-2-(3-(6-(difluoromethoxy)pyridin-3-yl)-6-oxopyridazin-1(6H)-yl)acetamide] was run?
The IC50 was < 10 µM.

For `CC[C@H](C)NC(=O)Cn1nc(-c2ccc(OC(F)F)nc2)ccc1=O` [Compound I-67, (S)-N-(sec-butyl)-2-(3-(6-(difluoromethoxy)pyridin-3-yl)-6-oxopyridazin-1(6H)-yl)acetamide], which IC50 is on record?
The IC50 was < 10 µM.

`O=C(Cn1nc(-c2ccc(OC(F)F)nc2)ccc1=O)NC1(c2ccccc2)CCC1` [Compound I-68, 2-(3-(6-(difluoromethoxy)pyridin-3-yl)-6-oxopyridazin-1(6H)-yl)-N-(1-phenylcyclobutyl) acetamide] was tested. Which IC50 did it give?
Its IC50 is < 10 µM.
